Columns and labels:
Test in all cases: relative viability (nuclei count vs DMSO), 5 days (fraction); higher = more cells survive
ChaGo-K-1 = system: ChaGo-K-1
In short: (§1)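 For relative viability, nuclei counts in treated wells were divided by those in vehicle wells. Lung cancer cell lines had been pin-tool dosed in 1536-well plates the day after seeding and cultured for 5 days, then fixed and stained in one step (final 0.05% Triton X-100, 1% formaldehyde, 1 ug/ml Hoechst) and imaged at 4×. Doses were one drug alone or a fixed anchor-drug dose plus five library-drug doses (not always all listed) in √10 steps, and values are duplicate-plate medians.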

EKVX = system: EKVX
In short: as §1

LC-2-ad = system: LC-2-ad
In short: as §1

NCI-H1623 = system: NCI-H1623
In short: as §1

NCI-H1648 = system: NCI-H1648
In short: as §1

NCI-H1666 = system: NCI-H1666
In short: as §1

## CN1CCN(CCOc2cc(OC3CCOCC3)c3c(Nc4c(Cl)ccc5c4OCO5)ncnc3c2)CC1 [Saracatinib] + Cc1cc(Nc2cc(N3CCN(C)CC3)nc(Sc3ccc(NC(=O)C4CC4)cc3)n2)n[nH]1 [Tozasertib] (partner 0.1 µM)
ChaGo-K-1; first compound 0.02 µM
  relative viability: 0.24
ChaGo-K-1; first compound 0.2 µM
  relative viability: 0.233
ChaGo-K-1; first compound 0.6325 µM
  relative viability: 0.218
ChaGo-K-1; first compound 2 µM
  relative viability: 0.198
EKVX; first compound 0.02 µM
  relative viability: 0.357
EKVX; first compound 0.6325 µM
  relative viability: 0.366
EKVX; first compound 2 µM
  relative viability: 0.254
LC-2-ad; first compound 0.02 µM
  relative viability: 0.39
LC-2-ad; first compound 0.2 µM
  relative viability: 0.427
LC-2-ad; first compound 0.6325 µM
  relative viability: 0.464
LC-2-ad; first compound 2 µM
  relative viability: 0.408
NCI-H1623; first compound 0.02 µM
  relative viability: 0.447
NCI-H1623; first compound 0.2 µM
  relative viability: 0.443
NCI-H1623; first compound 0.6325 µM
  relative viability: 0.456
NCI-H1623; first compound 2 µM
  relative viability: 0.348
NCI-H1648; first compound 0.02 µM
  relative viability: 0.629
NCI-H1648; first compound 0.6325 µM
  relative viability: 0.813
NCI-H1648; first compound 2 µM
  relative viability: 0.362
NCI-H1666; first compound 0.02 µM
  relative viability: 0.648
NCI-H1666; first compound 0.2 µM
  relative viability: 0.607
NCI-H1666; first compound 0.6325 µM
  relative viability: 0.66
NCI-H1666; first compound 2 µM
  relative viability: 0.625

## CN1CCN(CCOc2cc(OC3CCOCC3)c3c(Nc4c(Cl)ccc5c4OCO5)ncnc3c2)CC1 [Saracatinib] + COc1cccc2cc(-c3nc([C@H]4CC[C@H](C(=O)O)CC4)n4ncnc(N)c34)[nH]c12 [OSI-027] (partner 0.5 µM)
ChaGo-K-1; first compound 0.02 µM
  relative viability: 0.707
ChaGo-K-1; first compound 0.2 µM
  relative viability: 0.533
ChaGo-K-1; first compound 0.6325 µM
  relative viability: 0.519
ChaGo-K-1; first compound 2 µM
  relative viability: 0.524
EKVX; first compound 0.02 µM
  relative viability: 0.679
EKVX; first compound 0.6325 µM
  relative viability: 0.746
EKVX; first compound 2 µM
  relative viability: 0.456
LC-2-ad; first compound 0.02 µM
  relative viability: 0.844
LC-2-ad; first compound 0.2 µM
  relative viability: 0.804
LC-2-ad; first compound 0.6325 µM
  relative viability: 0.881
LC-2-ad; first compound 2 µM
  relative viability: 0.728
NCI-H1623; first compound 0.02 µM
  relative viability: 0.441
NCI-H1623; first compound 0.2 µM
  relative viability: 0.388
NCI-H1623; first compound 0.6325 µM
  relative viability: 0.404
NCI-H1623; first compound 2 µM
  relative viability: 0.357
NCI-H1648; first compound 0.02 µM
  relative viability: 0.265
NCI-H1648; first compound 0.6325 µM
  relative viability: 0.262
NCI-H1648; first compound 2 µM
  relative viability: 0.283
NCI-H1666; first compound 0.02 µM
  relative viability: 0.914
NCI-H1666; first compound 0.2 µM
  relative viability: 0.863
NCI-H1666; first compound 0.6325 µM
  relative viability: 1.2
NCI-H1666; first compound 2 µM
  relative viability: 1.07

## CCNC(=O)c1noc(-c2cc(C(C)C)c(O)cc2O)c1-c1ccc(CN2CCOCC2)cc1 [Luminespib] + COc1cccc2cc(-c3nc([C@H]4CC[C@H](C(=O)O)CC4)n4ncnc(N)c34)[nH]c12 [OSI-027] (partner 0.5 µM)
ChaGo-K-1; first compound 0.002 µM
  relative viability: 0.562
ChaGo-K-1; first compound 0.006325 µM
  relative viability: 0.612
ChaGo-K-1; first compound 0.02 µM
  relative viability: 0.525
ChaGo-K-1; first compound 0.06325 µM
  relative viability: 0.199
ChaGo-K-1; first compound 0.2 µM
  relative viability: 0.161
EKVX; first compound 0.002 µM
  relative viability: 0.631
EKVX; first compound 0.006325 µM
  relative viability: 0.684
EKVX; first compound 0.06325 µM
  relative viability: 0.658
EKVX; first compound 0.2 µM
  relative viability: 0.143
LC-2-ad; first compound 0.002 µM
  relative viability: 0.806
LC-2-ad; first compound 0.006325 µM
  relative viability: 0.822
LC-2-ad; first compound 0.02 µM
  relative viability: 0.569
LC-2-ad; first compound 0.06325 µM
  relative viability: 0.259
LC-2-ad; first compound 0.2 µM
  relative viability: 0.28
NCI-H1623; first compound 0.002 µM
  relative viability: 0.449
NCI-H1623; first compound 0.006325 µM
  relative viability: 0.439
NCI-H1623; first compound 0.02 µM
  relative viability: 0.415
NCI-H1623; first compound 0.06325 µM
  relative viability: 0.343
NCI-H1623; first compound 0.2 µM
  relative viability: 0.293
NCI-H1648; first compound 0.006325 µM
  relative viability: 0.283
NCI-H1648; first compound 0.02 µM
  relative viability: 0.289
NCI-H1648; first compound 0.06325 µM
  relative viability: 0.366
NCI-H1648; first compound 0.2 µM
  relative viability: 0.335
NCI-H1666; first compound 0.002 µM
  relative viability: 0.841
NCI-H1666; first compound 0.006325 µM
  relative viability: 0.801
NCI-H1666; first compound 0.02 µM
  relative viability: 0.853
NCI-H1666; first compound 0.06325 µM
  relative viability: 0.81
NCI-H1666; first compound 0.2 µM
  relative viability: 0.791

## Cc1cn(-c2cc(NC(=O)c3ccc(C)c(Nc4nccc(-c5cccnc5)n4)c3)cc(C(F)(F)F)c2)cn1 [Nilotinib] + Cc1cc(Nc2cc(N3CCN(C)CC3)nc(Sc3ccc(NC(=O)C4CC4)cc3)n2)n[nH]1 [Tozasertib] (partner 0.1 µM)
ChaGo-K-1; first compound 0.001 µM
  relative viability: 0.205
ChaGo-K-1; first compound 0.003162 µM
  relative viability: 0.229
ChaGo-K-1; first compound 0.01 µM
  relative viability: 0.202
ChaGo-K-1; first compound 0.03162 µM
  relative viability: 0.162
ChaGo-K-1; first compound 0.1 µM
  relative viability: 0.138
EKVX; first compound 0.001 µM
  relative viability: 0.368
EKVX; first compound 0.003162 µM
  relative viability: 0.341
EKVX; first compound 0.01 µM
  relative viability: 0.35
EKVX; first compound 0.03162 µM
  relative viability: 0.252
EKVX; first compound 0.1 µM
  relative viability: 0.261
LC-2-ad; first compound 0.001 µM
  relative viability: 0.371
LC-2-ad; first compound 0.003162 µM
  relative viability: 0.337
LC-2-ad; first compound 0.01 µM
  relative viability: 0.382
LC-2-ad; first compound 0.03162 µM
  relative viability: 0.384
LC-2-ad; first compound 0.1 µM
  relative viability: 0.403
NCI-H1623; first compound 0.001 µM
  relative viability: 0.415
NCI-H1623; first compound 0.003162 µM
  relative viability: 0.528
NCI-H1623; first compound 0.01 µM
  relative viability: 0.457
NCI-H1623; first compound 0.03162 µM
  relative viability: 0.401
NCI-H1623; first compound 0.1 µM
  relative viability: 0.885
NCI-H1648; first compound 0.003162 µM
  relative viability: 0.395
NCI-H1648; first compound 0.01 µM
  relative viability: 0.389
NCI-H1648; first compound 0.03162 µM
  relative viability: 0.403
NCI-H1648; first compound 0.1 µM
  relative viability: 0.383
NCI-H1666; first compound 0.001 µM
  relative viability: 0.493
NCI-H1666; first compound 0.003162 µM
  relative viability: 0.566
NCI-H1666; first compound 0.01 µM
  relative viability: 0.531
NCI-H1666; first compound 0.03162 µM
  relative viability: 0.518
NCI-H1666; first compound 0.1 µM
  relative viability: 0.556

## Cc1csc(=NC2CCCCC2)n1/N=C/c1ccc(O)c(O)c1O [MIM1] + COc1cccc2cc(-c3nc([C@H]4CC[C@H](C(=O)O)CC4)n4ncnc(N)c34)[nH]c12 [OSI-027] (partner 0.5 µM)
ChaGo-K-1; first compound 0.2 µM
  relative viability: 0.597
ChaGo-K-1; first compound 0.6325 µM
  relative viability: 0.433
ChaGo-K-1; first compound 2 µM
  relative viability: 0.535
ChaGo-K-1; first compound 6.325 µM
  relative viability: 0.387
ChaGo-K-1; first compound 20 µM
  relative viability: 0.159
EKVX; first compound 0.2 µM
  relative viability: 0.803
EKVX; first compound 0.6325 µM
  relative viability: 0.767
EKVX; first compound 2 µM
  relative viability: 0.719
EKVX; first compound 6.325 µM
  relative viability: 0.53
EKVX; first compound 20 µM
  relative viability: 0.583
LC-2-ad; first compound 0.2 µM
  relative viability: 0.909
LC-2-ad; first compound 0.6325 µM
  relative viability: 0.591
LC-2-ad; first compound 2 µM
  relative viability: 0.754
LC-2-ad; first compound 6.325 µM
  relative viability: 0.373
LC-2-ad; first compound 20 µM
  relative viability: 0.218
NCI-H1623; first compound 0.2 µM
  relative viability: 0.435
NCI-H1623; first compound 0.6325 µM
  relative viability: 0.416
NCI-H1623; first compound 2 µM
  relative viability: 0.412
NCI-H1623; first compound 6.325 µM
  relative viability: 0.36
NCI-H1623; first compound 20 µM
  relative viability: 0.383
NCI-H1648; first compound 0.2 µM
  relative viability: 0.246
NCI-H1648; first compound 0.6325 µM
  relative viability: 0.272
NCI-H1648; first compound 2 µM
  relative viability: 0.28
NCI-H1648; first compound 6.325 µM
  relative viability: 0.275
NCI-H1648; first compound 20 µM
  relative viability: 0.226
NCI-H1666; first compound 0.2 µM
  relative viability: 0.957
NCI-H1666; first compound 0.6325 µM
  relative viability: 0.9
NCI-H1666; first compound 2 µM
  relative viability: 0.804
NCI-H1666; first compound 6.325 µM
  relative viability: 0.639
NCI-H1666; first compound 20 µM
  relative viability: 0.459
